Earlier results as cited in patent US9491955B2, “Balanced myristate- and laurate-containing edible oil” (Brandeis University, priority 2008, dated 2016).

System: rats
Settings: trimyristin component of a blend with peanut oil

## CCCCCCCCCCCCCC(=O)OCC(COC(=O)CCCCCCCCCCCCC)OC(=O)CCCCCCCCCCCCC [trimyristin]
  Decrease of cholesterol-raising capacity by interesterification with GNO: 34%
